“And” between values parts separate entries of the source, which are not always exact repeats. Equal values may be shown once.
Experiments:
hepatoma = conditions: given systemically; cited from earlier work
tumor (hepatoma) = assay: Scintigraphic scans of 195^m cisplatin given intravenously and intra-arterially to the same patient; type: in vivo
Source text: When the drug was given intravenously,less than five percent deposited in the tumor. When the drug was given intra-arterially, 35 to 40 percent of the drug deposited in the tumor, as witnessed by scintigraphic scans.
(§1) Because of a high response rate to intra-arterial cisplatinum compared to intravenous delivery a study was done to estimate whether there was a differential tumor uptake of cisplatinum. Patients were given similar tracer doses of ^195m cisplatinum, first intravenously then by HAI. It was estimated that the maximum dose for this diagnostic quantitative trial would be 1.0 mCi, which would yield an estimated absorbed dose no greater than 5 centigray to the kidneys and therefore not cause toxicity. […] FIG. 6 is an example of their gamma camera study done the same day following the intra-arterial injection of 1.0 mCi ^195 Pt cisplatinum. […] Table 4 summarizes the data for this diagnostic quantitative trial following HAI of ^195m cisplatinum. As shown, the mean tumor uptake was 48.4% (range 34.2-55.4%) of the given activity and the mean ratio of tumor-to-liver uptake was 2.1 (range 1.6-2.4).

viable hepatoma = assay: Diagnostic quantitation of tumor uptake by ^195m cisplatinum gamma camera imaging after HAI; type: in vivo, patients
Experimental: (§2) The rationale for HAI cisplatinum was evaluated in a diagnostic quantitative study trial utilizing radioactive ^195m cisplatinum. The radiopharmaceutical was prepared using a ^194 Pt target and irradiation from neutron flux in a fission reactor (45,46). […] The study was approved by the institutional review board and radiation safety committee of Cooper Hospital University Medical Center for use of up to a 1.0 mCi dose of ^195m cisplatinum, delivered intra-arterially. Institutional Review Board approved informed consent documents were signed by all patients participating in this study.
Platinum-195m is a radionuclide with a physical half-life of 4.02 days. As it decays by isomeric transition it emits several photons imageable by scintillation camera. Six patients were imaged thirty minutes after administration of ^195m cisplatinum (252-1011 μCi) using a dual-head gamma camera system equipped with low-energy parallel-hole collimators. The camera was peaked at 76 keV with an energy window setting of 37%. […] Tumors and normal liver containing Pt-195m uptake were identified and appropriate regions of interest drawn. The method used for quantitation of the radioactivity utilized conjugate view images (180° opposed anterior and posterior planar images). Prior to patient studies a phantom study was performed under fixed geometry to determine a correction factor for patient attenuation and scatter and a system calibration factor. The phantom consisted of a simulated tumor containing 277.5 μCi of Pt-195m in an abdominal phantom filled with water to simulate patient attenuation and scatter. […] The activities determined from the conjugate view counting technique were divided by the administered activity and multiplied by 100 to obtain the percent tumor uptakes. Tumor-to-normal liver ratios were determined from the various regions of interest.
as §1

[1] = Safety of ^195m cisplatinum given by HAI; type: in vivo; conditions: six patients
Experimental: as §2
as §1, with “As shown, the mean tumor uptake was 48.4% (range 34.2-55.4%) of the given activity and the mean ratio of tumor-to-liver uptake was 2.1 (range 1.6-2.4).” left out

hepatocellular carcinoma [2] = conditions: intravenous, cited from earlier work
[3] = tested on: non-resectable hepatocellular carcinoma; assay: Remission and survival of hepatoma patients treated monthly with hepatic artery infusion (HAI) of cisplatinum at 50 mg/m^2; type: in vivo; design: median survival, increase over the six months reported from other regimens: unit not given here; conditions: for survival: one patient
Source text: Patient population: All patients were required to have histologic documentation of hepatocellular carcinoma. Pre-treatment evaluation included a complete medical history and physical examination, hepatitis virus status and complete blood cell counts, biochemical survey including lactate dehydrogenase, alkaline phosphatase, BUN, creatinine, bilirubin, PT/PTT and alpha fetoprotein (AFP) level; radiographic studies including CT scans of the chest, abdomen and pelvis with volumetric reconstruction of both tumor and normal liver volumes allowed determination of percentage of liver replacement by tumor. The presence of ascites was determined using both clinical examination and imaging results. Excluded were patients with a creatinine >1.5 and/or BUN >25. All patients gave written informed consent. Prior to referral to our facility 23 patients (34%) had multiple chemotherapeutic regimens. Of the 67 patients, 44 (65%) were treated with external beam radiation to the involved liver as a component of the prescribed treatment program. Assessment of liver function was done using the modified Childs-Pugh classification (41). The American Joint Committee on Cancer staging system was used to stage tumor extent in all patients (42). […]
Intrahepatic arterial chemotherapy: The infusion was performed either with a temporary percutaneous femoral or axillary artery catheter or implanted port or pump. On the day prior to treatment the patients were instructed to take 1 to 2 liters of fluid orally. On admission, 1 liter of 5% dextrose in normal saline with 20 meq potassium was given intravenously. Utilizing a femoral or axillary artery transcutaneous approach an arteriogram of the common hepatic artery was done. Next, cisplatinum 50 mg/m^2 was dissolved to a concentration of 1 mg per ml of sterile water. The solution was then infused intra-arterially at a rate of 1 mg/minute. The chemotherapy was always infused into the most distal artery feeding the main mass of the tumor. Appropriate antiemetic therapy, generally Odansetron 0.15 mg/kg IV and dexamethasone 20 mg IV was administered before the cisplatinum infusion and as needed after the infusion. On discharge home patients were given an oral antiemetic regimen of Lorazepam 1 mg, every six hours, or Odansetron 8 mg every twelve hours, as needed and Dexamethasone 4 mg every six hours for one day. Patients continued monthly HAI of cisplatinum until evidence of progressive disease or death. All patients were assessable for response.
Assessment of response: Routine clinical examinations and laboratory testing were performed at monthly intervals or as clinically indicated. The defined improvements on a minimum of two CT scans and/or AFP titers obtained at least two months apart were required to delineate response. Tumor volumes were quantified by computed tomography scan volumetric analysis of the liver as previously reported (20,43). Complete remission was the disappearance of all clinical evidence of tumor for a minimum of one month. Partial remission was a decrease of 50% or more in the volume of all measurable lesions measured on contrast-enhanced CT scan or a ≥50% reduction in AFP titer. Stable disease was a <50% decrease or <25% increase in tumor volume or AFP titer. Progressive disease was the increase of at least 25% in the tumor volume of all measurable lesions on CT scan or by AFP titer. Toxicity was assessed monthly during HAI therapy using RTOG criteria (44) with scores ≥3 considered to be major toxicities.
Statistical methods: The log-rank procedure was used to test for any statistical differences in survival distribution between patient populations (47). Survival curves were generated by the Kaplan Meier technique (48). Each survival curve was plotted as a step function of the Kaplan-Meier estimates.
Intra-arterial hepatic infusions were given to 67 patients with non-resectable hepatocellular carcinoma treated between July 1991 and September 1997. […]

[4] = tested on: non-resectable hepatocellular carcinoma; assay: as above; type: in vivo; conditions: intra-arterial, 50 mg/m^2, 28 patients
hepatocellular carcinoma [5] = conditions: subcutaneously; untreated controls 4 months; cited from earlier work
[6] = HAI, per patient (b206-b211 = patients 1-6), thirty minutes after administration
[7] = intra-arterial, tracer quantities
[8] = HAI after failing previous therapy, disease confined to liver, AFP (+)
[9] = HAI after failing previous therapy, disease confined to liver, AFP (-)

O=c1[nH]cc(F)c(=O)[nH]1 [5-FU, 5-fluorouracil]
effectiveness (hepatoma): inconsistently effective

[NH2][195Pt]([NH2])([Cl])[Cl] [^195m cisplatinum]
drug deposited in the tumor (tumor (hepatoma); intravenous): less than five
concentration in viable hepatoma (imaging) (viable hepatoma; HAI): hyperconcentration
Tumor uptake (viable hepatoma; [6]): 55.4% and 49.6% and 52.8% and 48.3% and 34.2% and 50.3%
Tumor-to-liver uptake ratio (viable hepatoma; [6]): 1.6 and 2.3 and 2.4 and 2.1 and 2.0
Tumor activity (viable hepatoma; HAI, per patient (b206-b211 = patients 1-6), thirty minutes after administration, administered 252-1011 μCi): 140 μCi and 501 μCi and 528 μCi and 489 μCi and 343 μCi and 503 μCi
mean ratio of tumor-to-liver uptake (viable hepatoma; HAI, six patients): 2.1
mean tumor uptake of the given activity (viable hepatoma; HAI, six patients): 48.4%
range of ratio of tumor-to-liver uptake (viable hepatoma; HAI, six patients): 1.6-2.4
range of tumor uptake of the given activity (viable hepatoma; HAI, six patients): 34.2-55.4%
exposure of the tumor vs intravenous route (viable hepatoma; intra-arterial, tracer amounts): selectively exposes the tumor to higher drug levels than can be achieved by the intravenous route
kinetics (viable hepatoma; [7]): first-pass kinetics
selective tumor uptake (viable hepatoma; [7]): 34-55 % of administered dose
adverse events [1]: no adverse events occurred

N.N.[Cl][Pt][Cl] [cisplatin, cisdiamminedichloroplatinum]
response rate (hepatocellular carcinoma [2]): less than five
response rate (in words) (hepatocellular carcinoma [2]; single drug): relatively poor response rate
median survival ([3]; AFP positive patients, as compared with octreotide study): 12 months
alive at one year [3, 8]: 56%
median survival [3, 8]: 17.3 months
alive at one year [3, 9]: 75%
median survival [3, 9]: 46.3 months
median survival ([3]; HAI after prior treatment failure, extra-hepatic metastases, AFP (+)/elevated): 8.9 months
median survival ([3]; HAI after prior treatment failure, extra-hepatic metastases, AFP (-)/not elevated): 11.1 months
median survival ([3]; HAI as primary therapy, disease confined to liver, AFP (+)): 12.0 months
median survival ([3]; HAI as primary therapy, disease confined to liver, AFP (-)): 17.5 months
median survival ([3]; HAI as primary therapy, extra-hepatic metastases, AFP (+)/elevated): 7.1 months
survival ([3]; HAI as primary therapy, extra-hepatic metastases, AFP (-)/not elevated, listed as HAI-CDDP): 21.0 months
survival ([3]; HAI as primary therapy, extra-hepatic metastases, AFP (-)/not elevated, listed as cisplatinum): 21 months
long term remission ([3]; HAI, 50 mg/m^2): long term remission can be obtained
median survival ([3]; HAI, AFP (+), all patients): 10.3 months
overall survival at one year ([3]; HAI, AFP (+), all patients): 45%
overall survival at one year ([3]; HAI, AFP (-), all patients): 59%
median survival ([3]; HAI, AFP (-), all patients, listed as cisplatinum): 21.8 months and 21 months
median survival ([3]; HAI, chronic Hepatitis B or C, regardless of AFP status): 10.7 months
significance of overall survival difference AFP (+) vs AFP (-) ([3]; HAI, log rank): significantly different
overall median survival ([3]; HAI, present study group): 10.3 months
response rate ([3]; arterial route): ≥ 50%
response ([3]; intra-arterial, 67 patients): 50%
remission ([3]; intra-arterial, 95 patients combined): 50%
median survival, increase over the six months reported from other regimens ([3]; worst group of hepatomas (AFP+ positive), intra-arterial): one
remission [4]: 50%
binding on the hepatoma, persistence (tumor (hepatoma); intra-arterial): apparently stays there for a persistent period of time

CO[C@@]12[C@H](COC(N)=O)C3=C(C(=O)C(C)=C(N)C3=O)N1C[C@@H]1N[C@@H]12 [mitomycin]
effectiveness (hepatoma): inconsistently effective

C[C@@H](O)[C@@H]1NC(=O)[C@H](CCCCN)NC(=O)[C@@H](Cc2c[nH]c3ccccc23)NC(=O)[C@H](Cc2ccccc2)NC(=O)[C@@H](NC(=O)[C@H](N)Cc2ccccc2)CSSC[C@@H](C(=O)N[C@H](CO)[C@@H](C)O)NC1=O [octreotide]
median survival (hepatocellular carcinoma [5]): 13 months

Reference: patent US6074626A (Molecular Radiation Management, Inc., priority 1999, dated 2000)
